The values that follow come from US20240228488A1 (TAKEDA PHARMACEUTICAL COMPANY LIMITED, priority 2021, published 2024).

Each structure is given as a SMILES string. A value given as a limit tells only on which side of the number the result lay.

Chain of human activated kallikrein enzyme (P03952 391-638 limits assumed): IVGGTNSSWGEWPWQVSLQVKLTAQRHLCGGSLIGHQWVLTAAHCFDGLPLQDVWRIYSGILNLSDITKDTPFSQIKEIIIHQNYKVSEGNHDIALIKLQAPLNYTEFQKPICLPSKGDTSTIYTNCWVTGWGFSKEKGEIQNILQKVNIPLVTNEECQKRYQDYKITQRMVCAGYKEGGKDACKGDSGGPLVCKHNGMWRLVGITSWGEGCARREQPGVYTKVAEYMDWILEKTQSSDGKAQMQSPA
Chain of human activated kallikrein enzyme (P03952 20-390 partner limits assumed): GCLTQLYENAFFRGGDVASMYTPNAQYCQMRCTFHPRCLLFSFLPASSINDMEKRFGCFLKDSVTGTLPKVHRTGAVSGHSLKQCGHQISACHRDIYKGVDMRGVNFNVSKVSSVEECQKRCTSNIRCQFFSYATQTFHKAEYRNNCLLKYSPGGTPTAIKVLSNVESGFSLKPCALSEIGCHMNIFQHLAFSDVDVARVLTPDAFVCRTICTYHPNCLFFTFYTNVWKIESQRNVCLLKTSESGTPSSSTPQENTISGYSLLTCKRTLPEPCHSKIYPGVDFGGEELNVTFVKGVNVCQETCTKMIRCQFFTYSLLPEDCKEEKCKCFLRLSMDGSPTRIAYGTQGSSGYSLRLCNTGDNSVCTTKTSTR

This assay concerns the target human activated kallikrein enzyme (Homo sapiens, UniProt P03952). Put plainly: Plasma kallikrein inhibition, fluorogenic PFR-AMC substrate, 500 pM activated kallikrein format. Format: biochemical. The settings on record: 500 pM activated kallikrein, 300 uM PFR-AMC, 30 min preincubation, 10 min reaction; read-out: Primary Dose Response Assay: Average EC50. The gist of the method:
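500 pM enz + cpd, 30 min RT preinc; start w/ PFR-AMC 300 uM; 10 min RT; Ex380/Em460. Buffer: Tris 20 mM pH 7.5, EDTA 1 mM, NaCl 150 mM, PEG-400 0.1%, Triton 0.1%. EC50.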
Regarding `O=C(Nc1nccc2nn(Cc3cn4cc(C5CC5)ccc4n3)cc12)[C@H]1C[C@@H]1c1cccc(Cl)c1` [Example 580, (1S,2S)-2-(3-chlorophenyl)-N-(2-((6-cyclopropylimidazo[1,2-a]pyridin-2-yl)methyl)-2H-pyrazolo[4,3-c]pyridin-4-yl)cyclopropane-1-carboxamide], the EC50 (in general, the concentration giving half of the maximal effect) lay within 1 to 10 nM.

Consider `Cc1cc2nn(Cc3cn4cc(C5CC5)ccc4n3)cc2c(NC(=O)[C@H]2C[C@@H]2c2cccc(Cl)c2)n1` [Example 581, (1S,2S)-2-(3-chlorophenyl)-N-(2-((6-cyclopropylimidazo[1,2-a]pyridin-2-yl)methyl)-6-methyl-2H-pyrazolo[4,3-c]pyridin-4-yl)cyclopropane-1-carboxamide], for which the concentration for a half-maximal effect (EC50) was 1 to 10 nM. As for `O=C(Nc1nccc2nn(Cc3cn4cc(C5CC5)ccc4n3)nc12)[C@H]1C[C@@H]1c1cccc(Cl)c1` [Example 583, (1S,2S)-2-(3-chlorophenyl)-N-(2-((6-cyclopropylimidazo[1,2-a]pyridin-2-yl)methyl)-2H-[1,2,3]triazolo[4,5-c]pyridin-4-yl)cyclopropane-1-carboxamide], the concentration giving a half-maximal response (EC50) lay within 1 to 10 nM. In the case of `O=C(Nc1nccc2c1cnn2Cc1cn2cc(C3CC3)ccc2n1)[C@H]1C[C@@H]1c1cccc(Cl)c1` [Example 584, (1S,2S)-2-(3-chlorophenyl)-N-(1-((6-cyclopropylimidazo[1,2-a]pyridin-2-yl)methyl)-1H-pyrazolo[4,3-c]pyridin-4-yl)cyclopropane-1-carboxamide] it was 1000 to 6000 nM; in that of `O=C(NCc1cn(Cc2cn3cc(C4CC4)cc(-n4cnnc4)c3n2)nn1)[C@H]1C[C@@H]1c1cccc(Cl)c1` [Example 591, (1S,2S)-2-(3-chlorophenyl)-N-((1-((6-cyclopropyl-8-(4H-1,2,4-triazol-4-yl)imidazo[1,2-a]pyridin-2-yl)methyl)-1H-1,2,3-triazol-4-yl)methyl)cyclopropane-1-carboxamide], 1 to 10 nM; in that of `O=C(Nc1ncncc1OCc1cn2cc(C3CC3)ccc2n1)[C@H]1C[C@@H]1c1cccc(Cl)c1` [Example 596, (1S,2S)-2-(3-chlorophenyl)-N-(5-((6-cyclopropylimidazo[1,2-a]pyridin-2-yl)methoxy)pyrimidin-4-yl)cyclopropane-1-carboxamide], 10 to 100 nM. To `O=C(Nc1cc2c(cn1)OCCN2Cc1cn2cc(C3CC3)ccc2n1)[C@H]1C[C@@H]1c1cccc(Cl)c1` [Example 597, (1S,2S)-2-(3-chlorophenyl)-N-(1-((6-cyclopropylimidazo[1,2-a]pyridin-2-yl)methyl)-2,3-dihydro-1H-pyrido[3,4-b][1,4]oxazin-7-yl)cyclopropane-1-carboxamide] belongs 1 to 10 nM; to `O=C(Nc1nnc(NCc2cn3cc(C4CC4)ccc3n2)s1)[C@H]1C[C@@H]1c1cccc(Cl)c1` [Example 606, (1S,2S)-2-(3-chlorophenyl)-N-(5-(((6-cyclopropylimidazo[1,2-a]pyridin-2-yl)methyl)amino)-1,3,4-thiadiazol-2-yl)cyclopropane-1-carboxamide], above 6000 nM.

Take `O=C(Nc1noc(NCc2cn3cc(C4CC4)ccc3n2)n1)[C@H]1C[C@@H]1c1cccc(Cl)c1` [Example 615, (1S,2S)-2-(3-chlorophenyl)-N-(5-(((6-cyclopropylimidazo[1,2-a]pyridin-2-yl)methyl)amino)-1,2,4-oxadiazol-3-yl)cyclopropane-1-carboxamide]: the EC50 was 1000 to 6000 nM. Take `CO[C@H]1C[C@H](c2cn3cc(C4CC4)ccc3n2)N(c2cc(NC(=O)[C@H]3C[C@@H]3c3cccc(Cl)c3)ncn2)C1` [Example 616, (1S,2S)-2-(3-chlorophenyl)-N-(6-((2R,4S)-2-(6-cyclopropylimidazo[1,2-a]pyridin-2-yl)-4-methoxypyrrolidin-1-yl)pyrimidin-4-yl)cyclopropane-1-carboxamide]: the EC50 is above 6000 nM.

As for `Cc1ccnc([C@H]2C[C@@H]2C(=O)Nc2nccc3nc(Cc4cn5cc(C6CC6)cc(N6CC(=O)N(C)C6=O)c5n4)oc23)n1` [Example 629, (1S,2S)—N-(2-((6-cyclopropyl-8-(3-methyl-2,4-dioxoimidazolidin-1-yl)imidazo[1,2-a]pyridin-2-yl)methyl)oxazolo[5,4-c]pyridin-4-yl)-2-(4-methylpyrimidin-2-yl)cyclopropane-1-carboxamide], the EC50 is below 1 nM. In the case of `Cc1ccnc([C@H]2C[C@@H]2C(=O)Nc2cn3c(Cc4cn5cc(C6CC6)cc(N6CC(=O)N(C)C6=O)c5n4)nnc3cn2)n1` [Example 630, (1S,2S)—N-(3-((6-cyclopropyl-8-(3-methyl-2,4-dioxoimidazolidin-1-yl)imidazo[1,2-a]pyridin-2-yl)methyl)-[1,2,4]triazolo[4,3-a]pyrazin-6-yl)-2-(4-methylpyrimidin-2-yl)cyclopropane-1-carboxamide] it was 1 to 10 nM. To `Cc1ccnc([C@H]2C[C@@H]2C(=O)Nc2ncc3c(n2)N(Cc2cn4cc(C5CC5)cc(N5CC(=O)N(C)C5=O)c4n2)CCO3)n1` [Example 631] belongs below 1 nM; to `Cc1ccnc([C@H]2C[C@@H]2C(=O)Nc2ccc(F)c(NCc3cn4cc(C5CC5)cc(N5CC(=O)N(C)C5=O)c4n3)c2)n1` [Example 656, (1S,2S)—N-(3-(((6-cyclopropyl-8-(3-methyl-2,4-dioxoimidazolidin-1-yl)imidazo[1,2-a]pyridin-2-yl)methyl)amino)-4-fluorophenyl)-2-(4-methylpyrimidin-2-yl)cyclopropane-1-carboxamide], below 1 nM. To `Cc1ccnc([C@H]2C[C@@H]2C(=O)Nc2ccc(F)c(OCc3cn4cc(C5CC5)cc(N5CC(=O)N(C)C5=O)c4n3)c2)n1` [Example 657, (1S,2S)—N-(3-((6-cyclopropyl-8-(3-methyl-2,4-dioxoimidazolidin-1-yl)imidazo[1,2-a]pyridin-2-yl)methoxy)-4-fluorophenyl)-2-(4-methylpyrimidin-2-yl)cyclopropane-1-carboxamide] belongs below 1 nM; to `Cc1ccnc([C@H]2C[C@@H]2C(=O)Nc2cc(F)c(Cl)c(NCc3cn4cc(C5CC5)cc(N5CC(=O)N(C)C5=O)c4n3)c2)n1` [Example 658, (1S,2S)—N-(4-chloro-3-(((6-cyclopropyl-8-(3-methyl-2,4-dioxoimidazolidin-1-yl)imidazo[1,2-a]pyridin-2-yl)methyl)amino)-5-fluorophenyl)-2-(4-methylpyrimidin-2-yl)cyclopropane-1-carboxamide], below 1 nM; to `Cc1ccnc([C@H]2C[C@@H]2C(=O)Nc2cc(NCc3cn4cc(C5CC5)cc(N5CC(=O)N(C)C5=O)c4n3)c(F)cc2F)n1` [Example 659, (1S,2S)—N-(5-(((6-cyclopropyl-8-(3-methyl-2,4-dioxoimidazolidin-1-yl)imidazo[1,2-a]pyridin-2-yl)methyl)amino)-2,4-difluorophenyl)-2-(4-methylpyrimidin-2-yl)cyclopropane-1-carboxamide], 1 to 10 nM. Take `Cc1ccnc([C@H]2C[C@@H]2C(=O)Nc2cc(OCc3ccccc3)cc(OCc3cn4cc(C5CC5)cc(N5CC(=O)N(C)C5=O)c4n3)n2)n1` [Example 660, (1S,2S)—N-(4-(benzyloxy)-6-((6-cyclopropyl-8-(3-methyl-2,4-dioxoimidazolidin-1-yl)imidazo[1,2-a]pyridin-2-yl)methoxy)pyridin-2-yl)-2-(4-methylpyrimidin-2-yl)cyclopropane-1-carboxamide]: the concentration giving a half-maximal response (EC50) lay in the range of 10 to 100 nM.

With `Cc1ccnc([C@H]2C[C@@H]2C(=O)Nc2cc(O)cc(OCc3cn4cc(C5CC5)cc(N5CC(=O)N(C)C5=O)c4n3)n2)n1` [Example 661, (1S,2S)—N-(6-((6-cyclopropyl-8-(3-methyl-2,4-dioxoimidazolidin-1-yl)imidazo[1,2-a]pyridin-2-yl)methoxy)-4-hydroxypyridin-2-yl)-2-(4-methylpyrimidin-2-yl)cyclopropane-1-carboxamide], the half-maximal effective concentration (EC50) was 1 to 10 nM. In the case of `Cc1ccnc([C@H]2C[C@@H]2C(=O)Nc2cc(OCc3cn4cc(C5CC5)cc(N5CC(=O)N(C)C5=O)c4n3)nc(C(C)O)n2)n1` (stereo partly drawn) [Example 662, (1S,2S)—N-(6-((6-cyclopropyl-8-(3-methyl-2,4-dioxoimidazolidin-1-yl)imidazo[1,2-a]pyridin-2-yl)methoxy)-2-(1-hydroxyethyl)pyrimidin-4-yl)-2-(4-methylpyrimidin-2-yl)cyclopropane-1-carboxamide] it was below 1 nM; in that of `COCc1cnc(NC(=O)[C@H]2C[C@@H]2c2nccc(C)n2)nc1OCc1cn2cc(C3CC3)cc(N3CC(=O)N(C)C3=O)c2n1` [Example 663, (1S,2S)—N-(4-((6-cyclopropyl-8-(3-methyl-2,4-dioxoimidazolidin-1-yl)imidazo[1,2-a]pyridin-2-yl)methoxy)-5-(methoxymethyl)pyrimidin-2-yl)-2-(4-methylpyrimidin-2-yl)cyclopropane-1-carboxamide], below 1 nM; in that of `Cc1ccnc([C@H]2C[C@@H]2C(=O)Nc2ncc(CO)c(OCc3cn4cc(C5CC5)cc(N5CC(=O)N(C)C5=O)c4n3)n2)n1` [Example 664, (1S,2S)—N-(4-((6-cyclopropyl-8-(3-methyl-2,4-dioxoimidazolidin-1-yl)imidazo[1,2-a]pyridin-2-yl)methoxy)-5-(hydroxymethyl)pyrimidin-2-yl)-2-(4-methylpyrimidin-2-yl)cyclopropane-1-carboxamide], below 1 nM. In the case of `Cc1ccnc([C@H]2C[C@@H]2C(=O)Nc2nncc(N[C@H](C)c3cn4cc(C5CC5)cc(N5CC(=O)N(C)C5=O)c4n3)n2)n1` [Example 665, (1S,2S)—N-(5-(((R)-1-(6-cyclopropyl-8-(3-methyl-2,4-dioxoimidazolidin-1-yl)imidazo[1,2-a]pyridin-2-yl)ethyl)amino)-1,2,4-triazin-3-yl)-2-(4-methylpyrimidin-2-yl)cyclopropane-1-carboxamide] it was below 1 nM.
